Test results taken from US9283222B2 (priority 2006, dated 2016).

Target: Recombinant Human Poly(ADP-Ribose) Polymerase (PARP), PARP-1 (Homo sapiens (Human), UniProt P09874)
Details: read-out: PARP-1 (Ki); Table 1; text calls the values EC50s

Sequence of Recombinant Human Poly(ADP-Ribose) Polymerase (PARP), PARP-1 (P09874 whole entry): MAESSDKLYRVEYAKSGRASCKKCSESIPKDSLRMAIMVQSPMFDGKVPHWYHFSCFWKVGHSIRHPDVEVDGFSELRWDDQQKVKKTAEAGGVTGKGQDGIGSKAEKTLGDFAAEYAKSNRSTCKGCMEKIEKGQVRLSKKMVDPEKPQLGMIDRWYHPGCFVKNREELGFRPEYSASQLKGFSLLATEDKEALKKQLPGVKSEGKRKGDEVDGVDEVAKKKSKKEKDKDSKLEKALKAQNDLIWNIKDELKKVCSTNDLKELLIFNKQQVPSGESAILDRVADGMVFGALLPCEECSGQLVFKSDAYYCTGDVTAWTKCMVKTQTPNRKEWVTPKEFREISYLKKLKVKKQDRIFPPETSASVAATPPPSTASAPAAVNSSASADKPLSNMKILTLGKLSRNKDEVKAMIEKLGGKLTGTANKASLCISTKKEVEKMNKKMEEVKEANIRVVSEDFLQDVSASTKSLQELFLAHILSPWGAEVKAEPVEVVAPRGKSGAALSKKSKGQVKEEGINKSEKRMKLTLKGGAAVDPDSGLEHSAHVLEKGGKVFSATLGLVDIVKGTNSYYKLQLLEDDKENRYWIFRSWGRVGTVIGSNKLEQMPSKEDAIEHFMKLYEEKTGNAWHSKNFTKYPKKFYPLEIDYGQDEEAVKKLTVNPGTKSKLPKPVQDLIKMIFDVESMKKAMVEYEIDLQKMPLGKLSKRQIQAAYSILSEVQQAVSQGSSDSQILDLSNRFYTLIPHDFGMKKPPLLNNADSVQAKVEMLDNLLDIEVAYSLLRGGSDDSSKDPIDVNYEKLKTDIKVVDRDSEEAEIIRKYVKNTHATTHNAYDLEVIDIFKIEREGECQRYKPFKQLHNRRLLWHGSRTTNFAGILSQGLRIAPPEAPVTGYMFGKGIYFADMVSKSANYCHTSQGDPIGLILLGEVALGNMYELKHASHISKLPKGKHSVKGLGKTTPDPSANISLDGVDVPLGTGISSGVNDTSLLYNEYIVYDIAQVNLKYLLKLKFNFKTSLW

| Structure (SMILES) | Ki [nM] |
| --- | --- |
| O=C1CCCN1c1cccc(Cc2n[nH]c(=O)c3c2CCCC3)n1 [Example 125, 4-((6-(2-oxopyrrolidin-1-yl)pyridin-2-yl)methyl)-5,6,7,8-tetrahydrophthalazin-1(2H)-one] | 47 |
| O=C(Nc1cccc(Cc2n[nH]c(=O)c3c2CCCC3)n1)c1ccccc1 [Example 126, N-(6-((4-oxo-3,4,5,6,7,8-hexahydrophthalazin-1-yl)methyl)pyridin-2-yl)benzamide] | 286 |
| O=c1[nH]nc(Cc2cccc(-c3cccc(CNC4CCCC4)c3)c2)c2c1CCCC2 [Example 128, 4-((3′-((cyclopentylamino)methyl)-1,1′-biphenyl-3-yl)methyl)-5,6,7,8-tetrahydrophthalazin-1(2H)-one] | 43 |
| CC1CCCN1Cc1cccc(-c2cccc(Cc3n[nH]c(=O)c4c3CCCC4)c2)c1 (stereo not shown) [Example 129, 4-((3′-((2-methylpyrrolidin-1-yl)methyl)-1,1′-biphenyl-3-yl)methyl)-5,6,7,8-tetrahydrophthalazin-1(2H)-one] | 41 |
| O=c1[nH]nc(Cc2cccc(-c3cccc(CNC4CC4)c3)c2)c2c1CCCC2 [Example 130, 4-((3′-((cyclopropylamino)methyl)-1,1′-biphenyl-3-yl)methyl)-5,6,7,8-tetrahydrophthalazin-1(2H)-one] | 24 |
| O=c1[nH]nc(Cc2cccc(-c3cccc(CNC4CCC4)c3)c2)c2c1CCCC2 [Example 131, 4-((3′-((cyclobutylamino)methyl)-1,1′-biphenyl-3-yl)methyl)-5,6,7,8-tetrahydrophthalazin-1(2H)-one] | 32 |
| O=c1[nH]nc(Cc2cc[n+]([O-])c(Br)c2)c2c1CCCC2 [Example 132, 4-((2-bromo-1-oxidopyridin-4-yl)methyl)-5,6,7,8-tetrahydrophthalazin-1(2H)-one] | 1040 |
| O=C1CCCN1c1cc(Cc2n[nH]c(=O)c3c2CCCC3)cc[n+]1[O-] [Example 133, 4-((1-oxido-2-(2-oxopyrrolidin-1-yl)pyridin-4-yl)methyl)-5,6,7,8-tetrahydrophthalazin-1(2H)-one] | 724 |
| CC1(C(=O)Nc2cccc(Cc3n[nH]c(=O)c4c3CCCC4)c2)CC1 [Example 136, 1-methyl-N-(3-((4-oxo-3,4,5,6,7,8-hexahydrophthalazin-1-yl)methyl)phenyl)cyclopropanecarboxamide] | 76 |
| CC1CC1C(=O)Nc1cccc(Cc2n[nH]c(=O)c3c2CCCC3)c1 (stereo not shown) [Example 137, 2-methyl-N-(3-((4-oxo-3,4,5,6,7,8-hexahydrophthalazin-1-yl)methyl)phenyl)cyclopropanecarboxamide] | 69 |
| CCOCCC(=O)Nc1cccc(Cc2n[nH]c(=O)c3c2CCCC3)c1 [Example 138, 3-ethoxy-N-(3-((4-oxo-3,4,5,6,7,8-hexahydrophthalazin-1-yl)methyl)phenyl)propanamide] | 22 |
| O=C1CC[C@@H](C(=O)Nc2cccc(Cc3n[nH]c(=O)c4c3CCCC4)c2)N1 [Example 139, 5-oxo-N-(3-((4-oxo-3,4,5,6,7,8-hexahydrophthalazin-1-yl)methyl)phenyl)-L-prolinamide] | 206 |
| O=C1CC[C@H](C(=O)Nc2cccc(Cc3n[nH]c(=O)c4c3CCCC4)c2)N1 [Example 140, 5-oxo-N-(3-((4-oxo-3,4,5,6,7,8-hexahydrophthalazin-1-yl)methyl)phenyl)-D-prolinamide] | 60 |
| NC(=O)C1(C(=O)Nc2cccc(Cc3n[nH]c(=O)c4c3CCCC4)c2)CC1 [Example 141] | 77 |
| O=C(COCc1ccccc1)Nc1cccc(Cc2n[nH]c(=O)c3c2CCCC3)c1 [Example 142, 2-(benzyloxy)-N-(3-((4-oxo-3,4,5,6,7,8-hexahydrophthalazin-1-yl)methyl)phenyl)acetamide] | 11 |
| O=C(CCc1ccccc1)Nc1cccc(Cc2n[nH]c(=O)c3c2CCCC3)c1 [Example 143, N-(3-((4-oxo-3,4,5,6,7,8-hexahydrophthalazin-1-yl)methyl)phenyl)-3-phenylpropanamide] | 78 |
